According to paper PMC3103432, “Effect of reverse transcriptase inhibitors on LINE-1 and Ty1 reverse transcriptase activities and on LINE-1 retrotransposition” (BMC Biochemistry, 2011):
Read-outs that look alike come from different tables or passages of the source. Marks after values point to notes of the source that are not given here.

Legend:
[1] = test system: ORFeus-Hs (synthetic human L1) retrotransposition in HeLa cells; test: Cell-based L1 retrotransposition assay, ORFeus-Hs
Method: (§1) The cell-based retrotransposition assay was conducted as described. HeLa cells (a gift from Dr. John Moran, University of Michigan) were seeded in 6-well dishes in DMEM (2×10^5 cells/well). The next day cells were transfected with Fugene 6 according to the manufacturer's manual. Each transfection consisted of 96 μl Opti-Mem, 1 μg pWA195 DNA and 3 μl Fugene 6. Sixteen hours after transfection, the cells were trypsinized and transferred to a 6 cm plate in DMEM with 2.5 μg/ml puromycin and the RT inhibitors. Three days after puromycin selection, dead cells were removed and puromycin resistant cells were trypsinized and counted with a hemocytometer. The puromycin resistant cells were plated on a 10 cm plate (1×10^4 cells/plate) in 10 ml DMEM with 500 μg/ml G418. The RT inhibitors were added to the same concentration as in the puromycin selection. […] Two weeks later, G418 resistant cells were fixed to the plate and stained with 0.1% crystal violet. The number of G418 resistant colonies was counted to calculate retrotransposition frequency. Six independent assays were done for each RT inhibitor.

[2] = molecular target: T1, human L1 reverse transcriptase (MBP-RT fusion) (Homo sapiens, UniProt O00370); test: In vitro (cell-free) RT assay and kinetic analysis with recombinant L1 RT; assay type: biochemical; details: for IC50: calculated as IC50 = Ki(1+ S/Km), read-out: IC50 against L1 RT; for Ki: competitive with respect to dTTP (AZTTP, d4TTP) or dCTP (ddCTP, 3TCTP), Lineweaver-Burk, read-out: Ki against L1 RT; for high concentration at which L1 RT was inhibited: inhibited only at this high concentration; for inhibition of L1 RT activity: concentrations as high as 500 μM
T1 construct: Human L1 ORF2 amino acid 238-1061 was inserted behind MBP gene in frame; made in house; host or cells: E. coli BL21
Method: (§2) The RT assays for HIV-1 and L1 RT were performed in a 20 μl reaction mixtures containing 50 mM Tris-Cl (pH 8.0), 50 mM KCl, 5 mM MgCl2, 10 mM DDT, 0.01 U template/primer, 1 μl [α-^32P] dTTP or [α-^32P] dCTP (final concentration 0.17 μM, 3000 Ci/mmol, 10 mCi/ml) at 37°C for 30 min. Then the mixture was spotted on DE81 paper and washed three times with 2×SSC buffer for a total time of 30 min. The DE81 paper was dried and counted by scintillation counter Beckman LS6000SC. RT assay for Ty1 RT was done under the same buffer condition except that 20 mM MgCl2 was used and the reaction mixture was incubated at room temperature. In each reaction the amounts of L1, HIV-1 and Ty1 RTs with the same specific activity were added. To test the inhibition of the RT inhibitors, 1 μl inhibitor was included in the mixture to obtain the desired concentration. […] All assays were done at least in triplicate.
The kinetic analysis was performed under the same conditions described above but with various concentrations of substrates and inhibitors as indicated in the text. Poly (rA)-oligo (dT)12-18 and [α-^32P] dTTP were used to analyze AZTTP and d4TTP. Poly (rI)-oligo (dC)12-18 and [α-^32P] dCTP were used to assay ddCTP and 3TCTP.

Ty1 RT [3] = molecular target: T2, Ty1 RT (Saccharomyces cerevisiae, UniProt Q99231); test: In vitro RT assay with recombinant Ty1 RT; assay type: biochemical; details: for increase of Ty1 RT activity: at low concentrations; for high concentration at which Ty1 RT was inhibited: inhibited only at this high concentration
T2 construct: recombinant Ty1 RT, which required C-terminal residues of integrase for its RT activity; made in house; host or cells: E. coli BL21 (co-transformed with chaperone plasmid pG-Tf2)
T2 sequence (Q99231 1103-1755): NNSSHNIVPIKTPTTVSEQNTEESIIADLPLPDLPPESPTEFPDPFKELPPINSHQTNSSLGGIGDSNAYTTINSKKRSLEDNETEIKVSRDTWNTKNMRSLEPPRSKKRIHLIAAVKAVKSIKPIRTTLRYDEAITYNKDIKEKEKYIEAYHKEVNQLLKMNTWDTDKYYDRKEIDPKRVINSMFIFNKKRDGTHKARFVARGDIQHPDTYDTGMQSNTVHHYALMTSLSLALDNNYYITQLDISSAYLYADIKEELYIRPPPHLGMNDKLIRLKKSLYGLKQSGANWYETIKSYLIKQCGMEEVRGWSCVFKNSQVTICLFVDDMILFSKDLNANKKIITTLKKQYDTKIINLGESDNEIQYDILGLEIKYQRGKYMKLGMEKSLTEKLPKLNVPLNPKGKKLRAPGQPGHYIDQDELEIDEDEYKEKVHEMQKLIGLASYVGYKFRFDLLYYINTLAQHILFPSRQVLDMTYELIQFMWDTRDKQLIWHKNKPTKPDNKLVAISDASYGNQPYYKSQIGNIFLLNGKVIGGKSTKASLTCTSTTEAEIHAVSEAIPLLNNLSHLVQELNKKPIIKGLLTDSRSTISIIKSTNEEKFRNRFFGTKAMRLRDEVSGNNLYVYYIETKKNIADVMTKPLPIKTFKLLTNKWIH
Method: as §2

[4] = test system: ORFeus-Mm (synthetic mouse L1) retrotransposition; test: Cell-based L1 retrotransposition assay, ORFeus-Mm; details: control = 1.0, normalized to cell viability
Method: as §1

HIV-1 = test system: HIV-1; set-up: method as in PMID 2413459; details: cited from earlier work
HeLa cells = test: Cell cytotoxicity of RT inhibitors; assay type: cell-based, human
Method: Untransfected Hela cells were plated on 10 cm plate (500 cells/plate) with and without RT inhibitors. Ten days later, cells were fixed to the plate and stained with 0.1% crystal violet. The number of colonies was counted to calculate colony formation ability. Colony formation ability of control assay without inhibitors was considered as 1.0 and colony formation ability in the presence of inhibitors was indicated as relative efficiency with respect to the control.

HIV-1 RT = details: read-out: IC50 against HIV-1 RT; previously reported; cited from earlier work
[5] = test system: AMV RT, MLV RT, human DNA polymerases α, β, γ and Klenow fragment; details: cited from earlier work
[6] = test system: HIV-1 mutants (substitutions at positions 103, 106, 181, 188 and 190); set-up: method as in PMID 17370068; details: cited from earlier work
Ty1 RT [7] = molecular target: T2, Ty1 RT; set-up: method as in PMID 10816427, PMID 11577982; details: ratio of ddGTP/GTP 0.2; cited from earlier work
[8] = Homo sapiens, HeLa, 5 μM, control = 1.0, normalized to cell viability, read-out: Relative retrotransposition efficiency
[9] = Homo sapiens, HeLa, 50 μM, control = 1.0, normalized to cell viability, read-out: Relative retrotransposition efficiency
[10] = 50 μM, control = 1.0, normalized to cell viability

Nc1ccn([C@H]2CS[C@@H](CO)O2)c(=O)n1 [3TC, 2',3'-dideoxy-3'-thiacytidine]
activity at 5 µM [1, 8]: 8 ± 3% | activity at 50 µM [1, 9]: 3 ± 3%

Nc1ccn([C@@H]2CS[C@H](COP(=O)(O)OP(=O)(O)OP(=O)(O)O)O2)c(=O)n1 [3TCTP, 2',3'-dideoxy-3'-thiacytidine triphosphate]
IC50 [2]: 18.6 nM | Ki [2]: 12.9 ± 0.16 nM | increase of Ty1 RT activity (Ty1 RT [3]): up to 40%

Nc1nc(NC2CC2)c2ncn(C3C=C[C@H](CO)C3)c2n1 (stereo partly drawn) [ABC, [(1R)-4-[2-amino-6-(cyclopropylamino)purin-9-yl]-1-cyclopent-2-enyl]methanol]
activity at 5 µM [1, 8]: 74 ± 6% | activity at 50 µM [1, 9]: 20 ± 4% | Relative retrotransposition efficiency ([4]; 5 μM): 0.80 ± 0.05 | Relative retrotransposition efficiency ([4]; 50 μM): 0.15 ± 0.03

Cc1cn([C@H]2C[C@H](N=[N+]=[N-])[C@@H](CO)O2)c(=O)[nH]c1=O [AZT, azidothymidine]
activity at 5 µM [1, 8]: 62 ± 6% | activity at 50 µM [1, 9]: 23 ± 4% | Relative retrotransposition efficiency ([4]; 5 μM): 0.75 ± 0.08 | Relative retrotransposition efficiency ([4]; 50 μM): 0.16 ± 0.02 | concentration completely inhibiting HIV-1 production (HIV-1): 1 to 3 µM

Cc1cn([C@H]2C[C@H](N=[N+]=[N-])[C@@H](CO[P@](=O)(O)O[P@](=O)(O)OP(=O)(O)O)O2)c(=O)[nH]c1=O [AZTTP, azidothymidine triphosphate]
IC50 [2]: 19.8 nM | Ki [2]: 16.4 ± 4.21 nM | increase of Ty1 RT activity (Ty1 RT [3]): up to 40%

CC(C)Nc1cccnc1N1CCN(C(=O)c2cc3cc(NS(C)(=O)=O)ccc3[nH]2)CC1 [DLV, delavirdine]
high concentration at which L1 RT was inhibited [2]: 50 µM | high concentration at which Ty1 RT was inhibited (Ty1 RT [3]): 50 µM | activity at 5 µM [1, 8]: 63% | activity at 50 µM [1, 9]: 28 ± 3% | inhibition at 50 µM ([1]; Homo sapiens, HeLa, 50 μM, read-out: inhibition of L1 retrotransposition efficiency): ~72% | Relative retrotransposition efficiency ([4]; 5 μM): 0.60 ± 0.05 | Relative retrotransposition efficiency ([4]; 50 μM): 0.02 ± 0.01 | concentration causing massive HeLa cell death (HeLa cells): 100 µM | IC50 (HIV-1 RT): 260 nM

O=C1Nc2ccc(Cl)cc2[C@@](C#CC2CC2)(C(F)(F)F)O1 [EFV, efavirenz]
high concentration at which L1 RT was inhibited [2]: 500 µM | high concentration at which Ty1 RT was inhibited (Ty1 RT [3]): 500 µM | activity at 5 µM [1, 8]: 28 ± 2% | inhibition at 5 µM ([1]; Homo sapiens, HeLa, 5 μM, read-out: inhibition of L1 retrotransposition efficiency): ~72% | concentration causing massive HeLa cell death (HeLa cells): 50 µM | activity against a variety of polymerases [5]: inactive

Nc1nc(=O)n(C2CSC(CO)O2)cc1F (stereo not shown) [FTC, 4-amino-5-fluoro-1-[2-(hydroxymethyl)-1,3-oxathiolan-5-yl]-pyrimidin-2-one]
activity at 5 µM [1, 8]: 25 ± 1% | activity at 50 µM [1, 9]: 12 ± 4% | Relative retrotransposition efficiency ([4]; 5 μM): 0.34 ± 0.01 | Relative retrotransposition efficiency ([4]; 50 μM): 0.26 ± 0.04

Cc1ccnc2c1NC(=O)c1cccnc1N2C1CC1 [NVP, nevirapine]
inhibition of L1 RT activity [2]: no inhibition | inhibition of L1 RT activity ([2]; listed as nevirapine): no effect | inhibition of Ty1 RT activity (Ty1 RT [3]; concentrations as high as 500 μM): no inhibition | activity at 5 µM [1, 8]: 108 ± 13% | activity at 50 µM [1, 9]: 89 ± 3% | activity at 200 µM ([1]; Homo sapiens, HeLa, 200 μM, control = 1.0, normalized to cell viability, read-out: Relative retrotransposition efficiency): 89% | activity at 400 µM ([1]; Homo sapiens, HeLa, 400 μM, control = 1.0, normalized to cell viability, read-out: Relative retrotransposition efficiency): 87 ± 3% | decrease of L1 transposition frequency ([1]; at all tested concentrations): ~ 10% | activity against a variety of polymerases [5]: inactive | reduction of susceptibility in HIV-1 mutants [6]: more than 50 fold

Cc1cn([C@H]2C=C[C@@H](CO)O2)c(=O)[nH]c1=O [d4T, 2'-3'-didehydro-2'-3'-dideoxythymidine]
Relative retrotransposition efficiency ([1]; 5 μM, control = 1.0, normalized to cell viability): 0.50 ± 0.05 | Relative retrotransposition efficiency [1, 10]: 0.05 ± 0.04 | Relative retrotransposition efficiency ([4]; 5 μM): 0.28 ± 0.05 | Relative retrotransposition efficiency ([4]; 50 μM): 0.01 ± 0.02

Cc1cn([C@H]2C=C[C@@H](COP(=O)(O)OP(=O)(O)OP(=O)(O)O)O2)c(=O)[nH]c1=O [d4TTP, 2'-3'-didehydro-2'-3'-dideoxythymidine triphosphate]
IC50 [2]: 0.88 nM | Ki [2]: 0.73 ± 0.22 nM

Nc1ccn([C@H]2C[C@H](O)[C@@H](COP(=O)(O)OP(=O)(O)OP(=O)(O)O)O2)c(=O)n1 [dCTP]
Km ([2]; poly (rI)-oligo (dC)12-18, no inhibitor, read-out: Km value for dCTP substrate): 0.38 µM

Cc1cn([C@H]2C[C@H](O)[C@@H](COP(=O)(O)OP(=O)(O)OP(=O)(O)O)O2)c(=O)[nH]c1=O [dTTP]
Km ([2]; poly (rA)-oligo (dT)12-18, no inhibitor, read-out: Km value for dTTP): 0.83 µM

Nc1ccn([C@H]2CC[C@@H](CO)O2)c(=O)n1 [ddC, 2'-3'-dideoxycytidine]
Relative retrotransposition efficiency [1, 10]: <0.005^c | Relative retrotransposition efficiency ([4]; 5 μM): <0.0025^c | Relative retrotransposition efficiency ([4]; 50 μM): <0.0025^c

Nc1ccn([C@H]2CC[C@@H](COP(=O)(O)OP(=O)(O)OP(=O)(O)O)O2)c(=O)n1 [ddCTP, 2'-3'-dideoxycytidine triphosphate]
IC50 [2]: 1.04 nM | Ki [2]: 0.72 ± 0.16 nM | increase of Ty1 RT activity (Ty1 RT [3]): up to 40%

Nc1nc2c(ncn2[C@H]2CC[C@@H](COP(=O)(O)OP(=O)(O)OP(=O)(O)O)O2)c(=O)[nH]1 [ddGTP]
decrease of Ty1 RT activity (Ty1 RT [7]): 90%

O=c1[nH]cnc2c1ncn2[C@H]1CC[C@@H](CO)O1 [ddI, 2'-3'-dideoxyinosine]
Relative retrotransposition efficiency [1, 10]: <0.005^c | Relative retrotransposition efficiency ([4]; 5 μM): <0.0025^c | Relative retrotransposition efficiency ([4]; 50 μM): <0.0025^c
